According to patent publication US8906832B2, “Quantitative analysis of carbohydrate-protein interactions using glycan microarrays: determination of surface and solution dissociation constants” (Academia Sinica, priority 2008, dated 2014):
Read-outs that look alike come from different tables or passages of the source.

How the values were obtained:
Con A [1] = molecular target: T1, Con A (Canavalia ensiformis, UniProt P02866); conditions: obtained by microcalorimetry; cited from earlier work
T1 construct: purchased Sigma

Con A [2] = molecular target: T1, Con A; experiment: Competitive binding assay on glycan microarray (solution KD / Ki)
Excerpt: The solution equilibrium dissociation constant (KD) for carbohydrate-lectin interactions can be determined using microarrays in a competitive assay. […] In a competitive binding experiment, carbohydrates in solution compete with immobilized carbohydrate ligands for the binding sites on the lectin, establishing a coupled equilibrium between the binding of protein to the immobilized species and to the species present in solution. Using array imaging signals, the unbound protein concentration [P] can be obtained via Langmuir isotherms (eq 1). Once the concentration of P has been measured, it is possible to determine the KD using eq 2, which is derived from the multivalent Scatchard formula (see the Experimental Section for the derivation of eq 2)
where [Lo] is ligand (carbohydrate) concentration applied to the system, and KD is the solution equilibrium dissociation constant. […] Binding curves, representing different concentrations of competitors were obtained as the function of FITC-Con A concentrations and fluorescence intensities from the Man8 surface (FIG. 4a). The data was analyzed according to eq 2, to afford apparent KD values, which were then replotted against competitor concentration to afford the solution KD values (FIG. 4b). […]
ArrayVision 8.0 (Applied Precision) was used for the fluorescence analysis and extraction of data. […]

Con A [3] = molecular target: T1, Con A; conditions: obtained by SPR; cited from earlier work
lectins or antibodies = molecular target: T2, lectins or antibodies (Lens culinaris, UniProt P02870); experiment: Direct binding on glycan microarray, lectin or antibody not named; conditions: binding protein not given
T2 construct: purchased Sigma
T2 sequence (P02870 31-210 limits assumed): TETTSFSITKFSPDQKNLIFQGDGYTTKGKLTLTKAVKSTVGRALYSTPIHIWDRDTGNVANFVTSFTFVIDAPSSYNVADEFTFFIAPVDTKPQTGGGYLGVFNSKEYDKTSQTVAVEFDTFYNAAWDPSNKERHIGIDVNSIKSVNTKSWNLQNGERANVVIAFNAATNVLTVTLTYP
T2 sequence (P02870 218-269 limits assumed): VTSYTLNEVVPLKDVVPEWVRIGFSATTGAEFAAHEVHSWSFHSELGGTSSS
Excerpt: Prior studies of carbohydrate-protein interactions have used a threshold-based, one-step qualitative analysis i.e. interaction or non-interaction. The threshold varies from one carbohydrate to another and is based on how well the carbohydrate behaves in the assay. Even when closely related glycans are studied under ideal conditions, they vary with respect to the surface density of active carbohydrates. Since the intensity of a spot depends both on KD,surf (which results from binding affinity), and Fmax (which results from surface active carbohydrate density and protein binding), the information obtained by probing an array with a single concentration of analytes may not be accurate.

Compound	Ki (Con A [1])	relative affinity KD (a-MeGlc)/KD (a-MeMan) (Con A [2]; inhibitors in solution, Con A)	Ki (Con A [3])	Fmax (maximal fluorescence intensity) (lectins or antibodies)	Kd (lectins or antibodies; read-out: KD (dissociation constant, surface))	fold stronger than Man1 in binding to Con A (Con A [2]; from solution KD values)
COC1OC(CO)C(O)C(O)C1O (stereo not drawn) [a-MeGlc, α-methyl glucose]	520 µM					
COC1OC(CO)C(O)C(O)C1O (stereo not drawn) [a-MeMan, α-methyl mannose]	120 µM	4.3	92 µM			
Man9				25780	0.335 µM	more than 10^3 fold
